The values that follow are results of earlier work, collected in the CATMoS acute toxicity set (Mansouri et al. 2021).

A short description of the series: rat acute oral toxicity. The note with it: in vivo.
The term LD50 denotes the dose at which mortality reaches 50%. `CN1C(=O)CN=C(c2ccccc2F)c2c1ccc(NC(=O)N1CCOCC1)c2Cl`: the LD50 is 1250 mg/kg. On to `CC1=C[C@H]2O[C@@H]3[C@H](O)[C@@H](O)[C@](C)([C@@]2(CO)[C@H](O)C1=O)[C@]31CO1`, for which the LD50 is 19.5 mg/kg. On to `CCCCCN(C)N=O`, for which the median lethal dose (LD50) was 120 mg/kg. As to `COP(=O)(OC)Oc1ccc(SC)cc1`, the 50% lethal dose (LD50) is 7 mg/kg.

With `CC(C(=O)O)c1ccc2oc(-c3ccc(F)cc3)nc2c1` (centres undefined), the LD50 was 521 mg/kg. Consider `CCOc1ccc(C(=O)COC(=O)CCC(=O)O)c2ccccc12`, for which the LD50 is 3500 mg/kg. On to `Cc1cc(C)c(Cc2cc(C)c(C)cc2C)cc1C`, for which the LD50 was 4500 mg/kg. `O=C(O)Cc1ccc(-c2ccccc2F)cc1`: the LD50 was 638 mg/kg. Turning to `C=CC(=O)NC(C)C`, the LD50 was 375 mg/kg. Turning to `O=P(O)(O)CN(CC(O)CN(CP(=O)(O)O)CP(=O)(O)O)CP(=O)(O)O`, the LD50 is 4300 mg/kg. Consider `CNC(=S)S`, for which the LD50 is 108 mg/kg. Take `C=CCN(CC=C)c1c(C)cc(OC(=O)NC)cc1C`: the LD50 was 89 mg/kg.

`NS(=O)(=O)c1cc2c(cc1Cl)NC(CC1CCCC1)NS2(=O)=O` (centres undefined): the LD50 is 1000 mg/kg.

As for `COc1cc2c(cc1OC)-c1c(OC)c(OC)cc3c1C(C2)N(C)CC3` (centres undefined), the LD50 is 545 mg/kg. As to `CC(C)(N)CO`, the LD50 is 2900 mg/kg.

For the molecule `Cc1cccc(CN(C)N=O)c1`, the LD50 is 600 mg/kg. As to `COc1ccccc1OCC(O)COC(N)=O` (centres undefined), the LD50 is 1320 mg/kg. As to `CCCCOC(=O)C1CC1OCCCC` (centres undefined), the LD50 was 24 mg/kg. For `CNC(=C[N+](=O)[O-])NCCSCc1csc(CN(C)C)n1`, the LD50 is 1650 mg/kg.

For the molecule `CCCCCCCCCC=O`, the LD50 was 3730 mg/kg.

Take `CCCCSc1nc2ccccc2s1`: the LD50 is 1270 mg/kg.

As to `CCCCNC(N)=O`, the LD50 was 1260 mg/kg. For `N#Cc1nn(-c2c(Cl)cc(C(F)(F)F)cc2Cl)c(N)c1S(=O)(=O)C(F)(F)F`, the LD50 is 184 mg/kg. On to `CC(C)=CCC(CCN1CCOCC1)(C(N)=O)c1cccc2ccccc12` (centres undefined), for which the 50% lethal dose (LD50) is 177 mg/kg. As to `CCOP(=O)(OCC)Oc1ccc(Cl)cc1Cl`, the median lethal dose (LD50) was 100 mg/kg. With `O=C(O)CCC(=O)Nc1ccc(NS(=O)(=O)c2ccc([N+](=O)[O-])cc2)cc1`, the LD50 was 1500 mg/kg. Regarding `COCCOC(=O)C1=C(C)NC(C)=C(C(=O)OC/C=C/c2ccccc2)C1c1cccc([N+](=O)[O-])c1` (centres undefined), the LD50 was 4410 mg/kg.

For the molecule `Cc1ccccc1CN(C)N=O`, the LD50 is 90 mg/kg. For the molecule `Cc1cc(C(C#N)c2ccc(Cl)cc2)c(Cl)cc1NC(=O)c1cc(I)cc(I)c1O` (centres undefined), the median lethal dose (LD50) is 262 mg/kg. As to `Cc1ccc(N)cc1Br`, the LD50 is 180 mg/kg.

For the molecule `C=CC(=O)OCC(C)O` (centres undefined), the LD50 is 250 mg/kg. As for `CCCCN(CC)c1c([N+](=O)[O-])cc(C(F)(F)F)cc1[N+](=O)[O-]`, the LD50 was 10000 mg/kg. As to `CC(C)NC(=O)OCC(O)C1COc2ccccc2O1` (centres undefined), the LD50 is 1500 mg/kg.

Regarding `CC1=CCC(=O)O1`, the LD50 is 3900 mg/kg.

In the case of `Brc1nc(Br)c(Br)[nH]1`, the LD50 is 34 mg/kg. Turning to `CN(C)C(=O)Oc1cccc([N+](C)(C)C)c1`, the LD50 was 51 mg/kg. Consider `CN(C)CCOC1=Cc2ccccc2Sc2ccc(Cl)cc21`, for which the LD50 was 306 mg/kg. For `CN(N=O)c1ccc(N=O)cc1`, the LD50 is 1370 mg/kg. Regarding `O=[N+]([O-])c1ccc(O)cc1`, the LD50 was 320 mg/kg. Regarding `CCCCc1ccc(O)cc1O`, the LD50 was 500 mg/kg. On to `Cc1occc(=O)c1O`, for which the LD50 was 1410 mg/kg.

On to `C[Si](Cn1cncn1)(c1ccc(F)cc1)c1ccc(F)cc1`, for which the LD50 is 674 mg/kg. For `CN(C)C(=S)SSC(=S)N(C)C`, the LD50 was 560 mg/kg. For `COc1cccc(C2(O)CCCCC2CN(C)C)c1` (centres undefined), the LD50 is 228 mg/kg. `C=CC[N+]1(CCC(C)CCCC(C)C)CCCCC1` (centres undefined): the LD50 was 360 mg/kg. As for `CNC(=O)Oc1cc(C(C)C)ccc1C`, the LD50 is 250 mg/kg. On to `O=C1C(Cl)C2(Cl)C3C(Cl)OCC3C1(Cl)C2(Cl)Cl` (centres undefined), for which the LD50 was 100 mg/kg.

Take `CC(C)(C)C(=O)CCl`: the 50% lethal dose (LD50) is 550 mg/kg. For `CSC`, the LD50 was 3300 mg/kg. With `O=C(O)CS(=O)(=O)O`, the LD50 was 3160 mg/kg. Take `C1CCC(C(CC2CCCCN2)C2CCCCC2)CC1` (centres undefined): the LD50 is 2150 mg/kg. `CN(C)C(=O)C(CC[N@+]1([O-])CC[C@@](O)(c2ccc(Cl)cc2)CC1)(c1ccccc1)c1ccccc1`: the LD50 is 172 mg/kg. In the case of `CCCCCN(N=O)C(N)=O`, the LD50 is 560 mg/kg. For the molecule `CCSC(=O)COc1ccc(Cl)cc1C`, the median lethal dose (LD50) is 790 mg/kg. `O=C(O)C(F)(F)C(F)(F)C(F)(F)C(F)(F)C(F)(F)C(F)F`: the LD50 was 1440 mg/kg.

In the case of `CCCCC[C@H](O)/C=C/[C@H]1[C@H](O)CC(=O)[C@@H]1CCCCCCC(=O)O`, the median lethal dose (LD50) was 228 mg/kg. For the molecule `FCCBr`, the LD50 is 5 mg/kg.

For `CC(CO)Oc1ccccc1` (centres undefined), the LD50 was 2830 mg/kg.

Consider `CCC#N`, for which the LD50 is 39 mg/kg. As for `CC(C)CCCC1CCC(C)(C(=O)NCC(=O)O)CC1` (centres undefined), the LD50 was 10300 mg/kg.

`C(=NC1CCCCC1)=NC1CCCCC1`: the LD50 was 400 mg/kg.

For `COC(=O)C(=O)C(O)=C(O)OC`, the 50% lethal dose (LD50) is 8000 mg/kg. With `CCOP(=O)(OCC)SCN1C(=O)c2ccccc2C1=O`, the LD50 is 11 mg/kg. Regarding `CNC(=O)c1c(I)c(C(=O)NCC(=O)Nc2c(I)c(C(=O)O)c(I)c(C(=O)NCCO)c2I)c(I)c(N(C)C(C)=O)c1I`, the median lethal dose (LD50) is 13300 mg/kg. For `CC(Cc1ccc(O)cc1)NCC(O)c1cc(O)cc(O)c1` (centres undefined), the LD50 is 1600 mg/kg. Regarding `Nc1ccc(Cl)c([N+](=O)[O-])c1`, the LD50 was 400 mg/kg. For the molecule `Cc1cccc2sc3nncn3c12`, the LD50 was 250 mg/kg.

Consider `COP(=S)(OC)Oc1cc(C)c(SC)c(C)c1`, for which the LD50 is 1000 mg/kg. `CC[C@@]1(O)C[C@H](O[C@H]2C[C@H](N(C)C)[C@H](O[C@H]3C[C@H](O)[C@H](O[C@H]4CCC(=O)[C@H](C)O4)[C@H](C)O3)[C@H](C)O2)c2c(cc3c(c2O)C(=O)c2c(O)cccc2C3=O)[C@H]1C(=O)OC`: the LD50 was 58.6 mg/kg. Take `COc1ccc2c(c1)-c1c(ccc(OC)c1O)CC(CCc1ccccc1)N(C)CC2` (centres undefined): the LD50 is 500 mg/kg.

On to `COc1cccc(N)c1`, for which the LD50 was 526 mg/kg. For `Cl[Si](Cl)(Cl)c1ccccc1`, the LD50 is 2390 mg/kg.

Regarding `N#CCCOCCCCOCCC#N`, the LD50 is 4000 mg/kg. Take `CC(C)=NNC(N)=S`: the 50% lethal dose (LD50) was 48.5 mg/kg. Regarding `Clc1ccc(-c2cccc(Cl)c2Cl)c(Cl)c1`, the LD50 is 4250 mg/kg.

With `CCOP(=O)(OCC)SC`, the LD50 was 47.1 mg/kg.

Take `CCCCOCCOCC`: the LD50 is 2830 mg/kg.

`OCc1cccc(Oc2ccccc2)c1`: the LD50 was 1500 mg/kg. `CC1(C)CN(c2ccccc2)NC1=O`: the LD50 was 30 mg/kg. As for `CNC(=O)ON=C1CCCC1(C)[N+](=O)[O-]` (centres undefined), the median lethal dose (LD50) was 4 mg/kg. As to `CCN(CC(=O)OCC(F)(F)F)c1cccc(C)c1`, the LD50 was 1900 mg/kg. Take `CN(C)CCCNC1=C2C(=CC=CC2[N+](=O)[O-])N(O)c2ccccc21` (centres undefined): the LD50 was 110 mg/kg.

On to `Oc1ccc(Cl)c(O)c1`, for which the LD50 is 369 mg/kg. As for `COc1cc(C=CC(=S)N2CCOCC2)cc(OC)c1OC`, the LD50 is 1350 mg/kg. Take `CCCCC(CC)COCCC(=O)O` (centres undefined): the LD50 was 3730 mg/kg. For the molecule `COP(=S)(OC)Oc1cc(C)c(Cl)cc1C(C)C`, the LD50 was 500 mg/kg. On to `CC(C(=O)O)c1ccc(-c2ccccc2)c(F)c1` (centres undefined), for which the LD50 is 117 mg/kg.

As to `COC(=O)[C@@](C)(N)Cc1ccc(O)c(C)c1`, the LD50 is 1400 mg/kg. Regarding `CCc1ccc(=O)n(CSP(=S)(OC)OC)n1`, the LD50 is 30 mg/kg.

In the case of `N[C@@H](Cc1ccc(O)c(O)c1)C(=O)O`, the LD50 was 1780 mg/kg. `COS(=O)(=O)c1ccc(C)cc1`: the LD50 is 341 mg/kg. As to `O=NN(CCF)C(=O)NC1CCCCC1`, the LD50 is 18.5 mg/kg. For `FC1(F)CC(C2CC3(Cl)C(Cl)=C(Cl)C2(Cl)C3(Cl)Cl)C1(F)F` (centres undefined), the LD50 was 550 mg/kg. As to `CCCCCCCCCCCC(=O)OCCSC#N`, the LD50 was 500 mg/kg.

On to `Cc1cc(-c2ccc(/N=N/c3c(N)c(C)cc(S(=O)(=O)O)c3N)c(C)c2)ccc1/N=N/c1ccc(O)c(C(=O)O)c1`, for which the 50% lethal dose (LD50) was 6830 mg/kg. Regarding `CCCCCCCCCCCCCN1CC(C)OC(C)C1` (centres undefined), the LD50 was 650 mg/kg.

As for `CNC(C)Cc1ccc(Cl)cc1` (centres undefined), the LD50 is 110 mg/kg.

For `CCCC/C=C\CCCCCCO`, the LD50 was 11700 mg/kg. In the case of `CCOC(=O)C=Cc1ccc(Cl)cc1`, the median lethal dose (LD50) was 957 mg/kg. With `C[C@@H](N)[C@@H](O)c1ccccc1`, the median lethal dose (LD50) is 1490 mg/kg. As to `C=CCC1(CCSCCCC)C(=O)N=C(S)NC1=O` (centres undefined), the LD50 is 1450 mg/kg. Take `CCN(CC)N=Nc1ccccc1`: the LD50 was 520 mg/kg. With `CC(C)c1ccc(-c2ccccc2)cc1`, the LD50 was 8500 mg/kg.

For `CNC(=O)Oc1ccc(CCC#N)cc1`, the LD50 was 620 mg/kg.

Regarding `CCCCOC(=S)SC(=S)OCCCC`, the LD50 was 1400 mg/kg. Regarding `c1ccc2cnccc2c1`, the LD50 was 360 mg/kg. Consider `Nc1ccc2[nH]c3c(c2c1)CCCC3`, for which the LD50 is 374 mg/kg.

For the molecule `CCN(CC)CCCN(c1ccccc1)C1Cc2ccccc2C1`, the LD50 was 525 mg/kg. Turning to `O=c1[nH]sc2ccccc12`, the LD50 is 1020 mg/kg.

In the case of `CCN1CCOCC1`, the LD50 is 1780 mg/kg. On to `CC(=O)N(O)CCCCCNC(=O)CCC(=O)N(O)CCCCCNC(=O)CCC(=O)N(O)CCCCCN`, for which the LD50 was 17300 mg/kg. Take `CC(=O)c1ccccc1Cl`: the LD50 is 1820 mg/kg. Regarding `C=CC(N)CCC(=O)O` (centres undefined), the LD50 was 3000 mg/kg. In the case of `CC(C)CCOC(=O)c1ccccc1O`, the 50% lethal dose (LD50) is 3300 mg/kg. Consider `CCCC(C)C(=O)Nc1ccc(C)c(Cl)c1` (centres undefined), for which the LD50 was 5100 mg/kg. Take `O=C(CCl)OCCOCCO`: the LD50 is 770 mg/kg. Regarding `Fc1c(F)c(F)c2[nH]c(C(F)(F)F)nc2c1F`, the LD50 is 3.33 mg/kg. Take `CCC(C)(C)c1ccc(Cl)c(OC(=O)NC)c1`: the LD50 was 75 mg/kg. Turning to `CCc1c(C)[nH]c2c1C(=O)C(CN1CCOCC1)CC2` (centres undefined), the median lethal dose (LD50) was 261 mg/kg. As to `C=C(F)C(=O)OCC(F)(F)C(F)F`, the LD50 was 60 mg/kg. `C#CCN1CCC2=C(C1)c1c(OC(=O)CCCN3CCCCC3)cc(C(C)C(C)CCCCC)cc1OC2(C)C` (centres undefined): the median lethal dose (LD50) is 130 mg/kg.

In the case of `CC(C)OCC1CO1` (centres undefined), the LD50 is 4200 mg/kg. As for `O=c1cc(O)c1=O`, the LD50 was 41 mg/kg. `Cc1ccc(S(=O)(=O)NC(=O)NC2C3CCC(C)(C2O)C3(C)C)cc1` (centres undefined): the LD50 was 18000 mg/kg.
